The values below come from publication PMC9671377, “Label-free affinity screening, design and synthesis of inhibitors targeting the Mycobacterium tuberculosis L-alanine dehydrogenase” (PLOS ONE, 2022).

The target in series [1] is T1, Mtb L-alanine dehydrogenase (AlaDH, Rv2780) (Mycobacterium tuberculosis, UniProt P9WQB1). The series is classed as binding. As to conditions: for Eluted AlaDH compared to N6-methyl ado / Integrated band volume / Ratio against N6-methyl ado / Eluted protein amount relative to N6-methyl ado: SDS gel densitometry; for Integrated band volume / Ratio against N6-methyl ado: Fig 3a.
T1 sequence (P9WQB1 whole entry, looked up): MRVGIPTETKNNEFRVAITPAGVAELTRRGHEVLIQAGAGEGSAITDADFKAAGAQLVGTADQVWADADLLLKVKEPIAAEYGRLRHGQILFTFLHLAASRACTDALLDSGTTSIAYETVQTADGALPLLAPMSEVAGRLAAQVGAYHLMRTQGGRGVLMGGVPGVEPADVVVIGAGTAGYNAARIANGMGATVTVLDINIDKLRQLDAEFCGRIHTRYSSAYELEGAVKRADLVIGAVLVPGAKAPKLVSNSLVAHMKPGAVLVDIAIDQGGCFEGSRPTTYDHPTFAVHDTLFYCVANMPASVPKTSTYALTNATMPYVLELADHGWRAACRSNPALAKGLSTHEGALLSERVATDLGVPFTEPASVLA

For series [2], the target named is Mtb L-alanine dehydrogenase (AlaDH) (Mycobacterium tuberculosis, UniProt P9WQB1). The series is classed as biochemical.
Sequence of Mtb L-alanine dehydrogenase (AlaDH) (P9WQB1 whole entry, looked up): as above
Series [3] concerns the target Mycobacterium tuberculosis L-alanine dehydrogenase (Mycobacterium tuberculosis, UniProt P9WQB1). Description: biochemical. The series is classed as biochemical. The settings on record: for Ki: competitive inhibition mode vs NAD, value (S.D.) in table.
Series [4] deals with Mtb in murine primary bone marrow-derived macrophages (BMDMs). The series is classed as cell-based, Mycobacterium tuberculosis H37Rv. As to conditions: 500 μM, 3 days.
The target in a further series is T2, human malate DH 2 (Homo sapiens, UniProt P40926).
T2 sequence (P40926 25-338): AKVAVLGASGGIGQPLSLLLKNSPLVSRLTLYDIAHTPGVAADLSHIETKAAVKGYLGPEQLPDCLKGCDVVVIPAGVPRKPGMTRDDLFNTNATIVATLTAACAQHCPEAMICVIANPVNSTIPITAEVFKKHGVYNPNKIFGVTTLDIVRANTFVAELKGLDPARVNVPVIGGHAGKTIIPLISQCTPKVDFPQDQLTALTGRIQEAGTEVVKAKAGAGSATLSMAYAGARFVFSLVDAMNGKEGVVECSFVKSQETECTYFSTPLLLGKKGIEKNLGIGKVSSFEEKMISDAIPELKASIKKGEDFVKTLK
Put plainly: Activity assay against human malate DH 2. It counts as biochemical.

In series [5] the test system is Mycobacterium tuberculosis H37Rv cells. Put plainly: Minimum inhibitory concentration assay (microfluidic agarose channel chip). It counts as cell-based.
In series [6] the test system is Mtb aldehyde dehydrogenase (Rv0223c, AldDH). The series is classed as biochemical, Mycobacterium tuberculosis. The settings on record: 1 mM inhibitor, 1 mM NAD, 10 mM propionaldehyde.
Series [7] concerns the target T1, Mtb L-alanine dehydrogenase (AlaDH, Rv2780). As to conditions: cited from earlier work.
The mark [8] stands for this setting: compound at 1 mM, SDS-PAGE of eluate.

The term Ki denotes a measure of affinity in units of concentration, obtained from inhibition or displacement. Low readings indicate higher affinity, high ones lower affinity. One may read the melting point as the temperature of the solid-liquid transition. What is called MIC is the least concentration at which growth counts as inhibited.

≈ marks a conversion by molar mass, not a printed value. Where “and” joins values, the source holds several entries; their conditions need not be identical. Identical values can stand only once. Like-named read-outs stand apart in the source and are kept apart here.

Sequence of Mycobacterium tuberculosis L-alanine dehydrogenase (P9WQB1 whole entry, looked up): as the sequence (P9WQB1 whole entry, looked up) above

Regarding `Cc1nc(N)c2ncn([C@@H]3O[C@H](CO)[C@@H](O)[C@H]3O)c2n1` [D28, C2-methyl adenosine], the “Elution of AlaDH from F3GA dye resin (displacement of the dye) in DLAC” value (“Elution of AlaDH from F3GA dye resin” below) in [1] was “did not show displacement”. Also, in [2], the “Initial velocity (vi) of the AlaDH reaction with compound” value is 1.769 x10^-3 [NADH]OD340/min and the “Reduction of initial velocity (vi) of the AlaDH reaction” value worked out at 4%.
`CCCNc1ncnc2c1ncn2[C@@H]1O[C@H](CO)[C@@H](O)[C@H]1O` [N6-propyl adenosine] returned a melting point of 162 to 165.4 °C. Besides, the Ki in series [3] is 110 µM and 113 µM. Also, in series [1], the “Eluted AlaDH compared to N6-methyl ado” value is given as 3.05 fold, the Integrated band volume is given as 126,378 and the “Ratio against N6-methyl ado” value is 3.05.
As to `CC(C)C(=O)Nc1ncnc2c1ncn2[C@@H]1O[C@H](CO)[C@@H](O)[C@H]1O` [N6-isobutyoyl adenosine], in [3], the Ki was found to be 3710 µM. Moreover, in [1], the “Eluted protein amount relative to N6-methyl ado” value is listed as 70%, the Integrated band volume was 29,087 and the “Ratio against N6-methyl ado” value worked out at 0.70.
Compound `CCNc1ncnc2c1ncn2[C@@H]1O[C@H](CO)[C@@H](O)[C@H]1O` [N6-ethyl adenosine] showed a melting point of 197.1 to 198.4 °C. Besides, in [3], the Ki is 520 µM and 521 µM. For the same compound, in [1], the “Eluted AlaDH compared to N6-methyl ado” value amounted to 2.12 fold, the Integrated band volume is on record as 87,674 and the “Ratio against N6-methyl ado” value turned out to be 2.12.
For `CNc1ncnc2c1ncn2[C@@H]1O[C@H](CO)[C@@H](O)[C@H]1O` [D30, N6-methyl adenosine], the Ki in series [3] is 860 µM and 861 µM. The “Intracellular growth of Mtb in BMDMs” value in [4] is given as “significantly decreased”. In addition, in [1], the Integrated band volume is on record as 41,418 and the “Ratio against N6-methyl ado” value was 1. For the same compound, the “Elution of AlaDH from F3GA dye resin” value in series [1] (setting [8]) is given as “displaced the F3GA dye from AlaDH”. Moreover, the “Inhibition of human malate DH 2 activity” value at human malate DH 2 is “no noticeable inhibition”. For the same compound, the MIC in [5] is around 10 µg/mL (≈ 35.6 µM). Moreover, the “Reduction of initial velocity (vi) of the AlaDH reaction” value in series [2] (1 mM inhibitor, 1 mM NAD, 17 mM L-alanine) came to 33%. Also, the “Initial velocity (vi) of the AlaDH reaction with compound” value in series [2] (no inhibition vi 1.842x10^-3, 1 mM inhibitor) is 1.231x10^-3 [NADH]OD340/min. Further, in series [6], the “Inhibition of AldDH activity” value is “none”.
As for `CC(=O)Nc1ncnc2c1ncn2[C@@H]1O[C@H](CO)[C@@H](O)[C@H]1O` [N6-acetyl ado], the “Inhibitory effect on AlaDH activity” value in series [3] is “did not reveal any inhibitory effect”. Further, in series [1], the “Eluted protein amount relative to N6-methyl ado” value was determined as 12%, the Integrated band volume was 5,015 and the “Ratio against N6-methyl ado” value is given as 0.12.
Regarding `Nc1ncnc2c1ncn2[C@@H]1O[C@H](COP(=O)(O)OP(=O)(O)OP(=O)(O)O)[C@@H](O)[C@H]1O` [ATP, reference compound], the “Elution of AlaDH from F3GA dye resin” value in series [1] (setting [8]) is given as “eluted the target AlaDH enzyme”. For the same compound, the “Binding in DLAC assay (previous data)” value in [7] is listed as “bound strongly”.
`NC(=O)C1=CN([C@@H]2O[C@H](COP(=O)(O)OP(=O)(O)OC[C@H]3O[C@@H](n4cnc5c(N)ncnc54)[C@H](O)[C@@H]3O)[C@@H](O)[C@H]2O)C=CC1` [NADH]: in [7], the “Binding in DLAC assay (previous data)” value is “bound strongly”.
Turning to `CC(C)CNc1ncnc2c1ncn2[C@@H]1O[C@H](CO)[C@@H](O)[C@H]1O` [N6-isobutyl adenosine], in [3], the Ki was 80 µM and 79 µM. In addition, in series [1], the Integrated band volume was 143,252 and the “Ratio against N6-methyl ado” value came out at 3.45. Further, the “Eluted AlaDH compared to N6-methyl ado” value in series [1] (listed as N6-isobutyl ado) was 3.45 fold and ~ 3.5 fold. The “Inhibition of human malate DH 2 activity” value at human malate DH 2 is “no noticeable inhibition”. Besides, in [2] ([…], without compound vi 1.922 x10^-3), the “vi of wild-type AlaDH after adding compound” value was 0.734 x10^-3 [NADH]OD340/min. Also, the “Inhibition of AldDH activity” value in [6] was “no inhibition”.
